Target: T1, TSDL (D-lactonase) (Thermothielavioides terrestris, UniProt G2R1T8)
T1 construct: gene THITE_2046186; 421 aa, about 45 kDa on SDS-PAGE; pET-28a(+) NcoI/XhoI, E. coli BL21(DE3), intracellular; used as whole cells
T1 sequence (G2R1T8 1-421): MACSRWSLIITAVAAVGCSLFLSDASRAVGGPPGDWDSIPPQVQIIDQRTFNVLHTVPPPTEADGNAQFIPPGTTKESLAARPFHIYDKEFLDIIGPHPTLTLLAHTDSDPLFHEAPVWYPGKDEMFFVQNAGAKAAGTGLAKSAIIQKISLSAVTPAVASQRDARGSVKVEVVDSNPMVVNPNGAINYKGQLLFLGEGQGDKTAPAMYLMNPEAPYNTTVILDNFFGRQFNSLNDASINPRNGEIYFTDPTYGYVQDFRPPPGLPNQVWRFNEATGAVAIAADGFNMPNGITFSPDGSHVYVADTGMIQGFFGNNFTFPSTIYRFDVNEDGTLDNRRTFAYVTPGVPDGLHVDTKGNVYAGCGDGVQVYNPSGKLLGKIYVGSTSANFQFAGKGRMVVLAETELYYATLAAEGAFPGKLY
Test: whole-cell hydrolysis of D,L-pantolactone, HPLC and chiral HPLC
Type: cell-based
Details: racemic D,L-pantolactone; recombinant E. coli (TSDL) whole cells; pH 7.0, 30 °C; 5% NH3·H2O for pH control

In the case of `CC1(C)COC(=O)[C@@H]1O` [D-PL, D-pantolactone], the “whole-cell hydrolysis of D,L-pantolactone, HPLC and chiral HPLC” value is reported as “The recombinant TSDL exhibited high hydrolysis activity and enantioselectivity toward D-PL”.

— paper PMC8693235, “Biocatalytic kinetic resolution of D,L-pantolactone by using a novel recombinant D-lactonase” (RSC Advances, 2020)
